Source: US10785979B2, “Substituted ketoxime benzoylamides” (Bayer CropScience Aktiengesellschaft, priority 2015, dated 2020)

Assays:
different harmful plants [1] = test: Post-emergence comparative tests versus known compounds from WO 2013/064459 A1 (D1); assay type: in vivo; conditions: visual assessment after about 3 weeks; for Herbicidal efficacy against ALOMY: Alopecurus myosuroides; for Herbicidal efficacy against VIOTR: Viola tricolor; for Herbicidal efficacy against MATIN: Matricaria inodora
Method: Seeds of monocotyledonous and dicotyledonous weed and crop plants are laid out in sandy loam soil in wood-fiber pots, covered with soil and cultivated in a greenhouse under good growth conditions. 2 to 3 weeks after sowing, the test plants are treated at the one-leaf stage. The compounds of the invention, formulated in the form of wettable powders (WP) or as emulsion concentrates (EC), are then sprayed onto the green parts of the plants in the form of an aqueous suspension or emulsion at a water application rate equating to 600 to 800 I/ha, with addition of 0.2% wetting agent. After the test plants have been left to stand in the greenhouse under optimal growth conditions for about 3 weeks, the action of the preparations is assessed visually in comparison to untreated controls (herbicidal action in percent (%): 100% activity=the plants have died, 0% activity=like control plants). In this case, for example, compound Nos. 1-15, 1-71, 1-74, 2-15, 2-19, 2-67, 2-71, 2-74, 2-136, 3-15, 3-19, 4-19, 4-136, 5-15, 7-15, 7-19, 7-74, 8-1, 8-25, 8-26, 9-5, 9-25, 10-5 and 10-5, at an application rate of 80 g/ha, each show at least 80% efficacy against Abutilon theophrasti and Veronica persica.
(§1) 3. Comparative Experiments
(§2) In addition, comparative tests were conducted under the conditions specified above on different harmful plants between inventive compounds and the most structurally similar known compounds from WO 2013/064459 A1 (D1). The results listed in the tables which follow show the superiority of these compounds of the invention.
(§3) The abbreviations used here mean:
Post-Emergence Comparative Tests

different harmful plants [2] = test: Pre-emergence comparative tests versus known compounds from WO 2013/064459 A1 (D1); assay type: in vivo; conditions: visual scoring after 3 weeks; for Herbicidal efficacy against AVEFA: Avena fatua; for Herbicidal efficacy against CYPES: Cyperus esculentus; for Herbicidal efficacy against VIOTR: Viola tricolor; for Herbicidal efficacy against POLCO: Polygonum convolvulus; for Herbicidal efficacy against ECHCG: Echinochloa crus galli; for Herbicidal efficacy against STEME: Stellaria media
From the text: Seeds of monocotyledonous and dicotyledonous weed plants and crop plants are laid out in wood-fiber pots in sandy loam and covered with soil. The compounds of the invention, formulated in the form of wettable powders (WP) or as emulsion concentrates (EC), are then applied to the surface of the covering soil in the form of an aqueous suspension or emulsion at a water application rate equating to 600 to 800 I/ha, with addition of 0.2% wetting agent. After the treatment, the pots are placed in a greenhouse and kept under good growth conditions for the trial plants. The damage to the test plants is scored visually after a test period of 3 weeks by comparison with untreated controls (herbicidal activity in percent (%): 100% activity=the plants have died, 0% activity=like control plants). In this case, for example, compound Nos. 1-15, 1-71, 1-74, 2-15, 2-19, 2-67, 2-71, 2-74, 2-136, 3-15, 3-19, 4-74, 5-15, 5-67, 5-71, 5-74, 6-15, 6-19, 6-67, 6-71, 6-74, 7-15, 7-19, 7-71, 7-74, 8-1, 8-25, 9-5, 9-25, 10-5 and 12-25, at an application rate of 320 g/ha, each show at least 80% efficacy against Abutilon theophrasti and Veronica persica.
as §1, §2, §3
Pre-Emergence Comparative Tests

| SMILES | Herbicidal efficacy against AVEFA (different harmful plants [2]; 320 g a.i./ha) [%] | Herbicidal efficacy against VIOTR (different harmful plants [2]; 320 g a.i./ha) [%] | Herbicidal efficacy against MATIN (different harmful plants [1]; 80 g a.i./ha) [%] | Herbicidal efficacy against VIOTR (different harmful plants [1]; 80 g a.i./ha) [%] | also measured |
| --- | --- | --- | --- | --- | --- |
| CCON=C(C)c1c(S(C)(=O)=O)ccc(C(=O)Nc2ncnn2C)c1Cl (single isomer, unassigned) [4-19] |  |  |  |  | Herbicidal efficacy against ALOMY (different harmful plants [1]; 20 g a.i./ha): 80%; Herbicidal efficacy against VIOTR (different harmful plants [1]; 20 g a.i./ha): 100% |
| CCCn1nnnc1NC(=O)c1ccc(Cl)c(C(C)=NOC)c1Cl (single isomer, unassigned) [3-1] | 80 | 100 |  |  | Herbicidal efficacy against MATIN (different harmful plants [1]; 20 g a.i./ha): 80%; Herbicidal efficacy against VIOTR (different harmful plants [1]; 20 g a.i./ha): 100%; Herbicidal efficacy against CYPES (different harmful plants [2]; 320 g a.i./ha): 100% |
| CCON=C(C)c1c(S(C)(=O)=O)ccc(C(=O)Nc2nonc2C)c1Cl (single isomer, unassigned) [13-6] | 60 | 100 | 60 | 100 | Herbicidal efficacy against CYPES (different harmful plants [2]; 320 g a.i./ha): 60% |
| CON=C(C)c1c(S(C)(=O)=O)ccc(C(=O)Nc2nonc2C)c1Cl (single isomer, unassigned) [13-5] |  |  | 60 | 90 |  |
| CCCn1nnnc1NC(=O)c1ccc(S(C)(=O)=O)c(C(C)=NOC)c1Cl (single isomer, unassigned) [3-15] |  |  |  |  | Herbicidal efficacy against MATIN (different harmful plants [1]; 20 g a.i./ha): 90%; Herbicidal efficacy against VIOTR (different harmful plants [1]; 20 g a.i./ha): 90% |
| CCCn1nnnc1NC(=O)c1ccc(Cl)c(C(C)=NOCC2CC2)c1Cl (single isomer, unassigned) [3-8] |  |  | 70 | 80 |  |
| CCON=C(C)c1c(S(C)(=O)=O)ccc(C(=O)Nc2nonc2C)c1Cl (single isomer, unassigned) [6-19] | 30 | 100 | 70 | 100 | Herbicidal efficacy against CYPES (different harmful plants [2]; 320 g a.i./ha): 80% |
| CCCn1nnnc1NC(=O)c1ccc(S(C)(=O)=O)c(C(C)=NOCC)c1Cl (single isomer, unassigned) [10-6] | 40 | 100 |  |  | Herbicidal efficacy against MATIN (different harmful plants [1]; 20 g a.i./ha): 90%; Herbicidal efficacy against VIOTR (different harmful plants [1]; 20 g a.i./ha): 100%; Herbicidal efficacy against POLCO (different harmful plants [2]; 320 g a.i./ha): 60% |
| CCCn1nnnc1NC(=O)c1ccc(S(C)(=O)=O)c(C(C)=NOCC)c1Cl (single isomer, unassigned) [3-19] |  |  |  | 100 | Herbicidal efficacy against ALOMY (different harmful plants [1]; 80 g a.i./ha): 50%; Herbicidal efficacy against CYPES (different harmful plants [2]; 80 g a.i./ha): 80%; Herbicidal efficacy against ECHCG (different harmful plants [2]; 80 g a.i./ha): 90%; Herbicidal efficacy against VIOTR (different harmful plants [2]; 80 g a.i./ha): 100% |
| CCn1nnnc1NC(=O)c1ccc(Cl)c(C(C)=NOC)c1Cl (single isomer, unassigned) [2-1] | 100 | 100 |  | 100 | Herbicidal efficacy against ALOMY (different harmful plants [1]; 80 g a.i./ha): 60%; Herbicidal efficacy against CYPES (different harmful plants [2]; 320 g a.i./ha): 100% |
| CCCn1nnnc1NC(=O)c1ccc(Cl)c(C(C)=NOCC)c1Cl (single isomer, unassigned) [3-5] | 70 | 100 | 90 | 100 | Herbicidal efficacy against STEME (different harmful plants [2]; 320 g a.i./ha): 100% |
| CCON=C(C)c1c(Cl)ccc(C(=O)Nc2nnnn2C)c1Cl (single isomer, unassigned) [1-5] | 90 | 100 |  |  | Herbicidal efficacy against MATIN (different harmful plants [1]; 20 g a.i./ha): 90%; Herbicidal efficacy against VIOTR (different harmful plants [1]; 20 g a.i./ha): 90%; Herbicidal efficacy against CYPES (different harmful plants [2]; 320 g a.i./ha): 90% |
| CON=C(C)c1c(Cl)ccc(C(=O)Nc2nonc2C)c1Cl (single isomer, unassigned) [6-1] |  |  |  |  | Herbicidal efficacy against ECHCG (different harmful plants [2]; 320 g a.i./ha): 60%; Herbicidal efficacy against POLCO (different harmful plants [2]; 320 g a.i./ha): 40%; Herbicidal efficacy against STEME (different harmful plants [2]; 320 g a.i./ha): 60% |
| CON=C(C)c1c(S(C)(=O)=O)ccc(C(=O)Nc2nonc2C)c1Cl (single isomer, unassigned) [6-15] |  |  | 80 | 100 |  |
| CCCn1nnnc1NC(=O)c1ccc(S(C)(=O)=O)c(C(C)=NOC)c1Cl (single isomer, unassigned) [10-5] |  |  | 100 |  | Herbicidal efficacy against ALOMY (different harmful plants [1]; 80 g a.i./ha): 60% |
| CC(=NOCC1CC1)c1c(Cl)ccc(C(=O)Nc2nnnn2C)c1Cl (single isomer, unassigned) [1-8] | 90 | 100 | 100 |  | Herbicidal efficacy against ALOMY (different harmful plants [1]; 80 g a.i./ha): 70%; Herbicidal efficacy against STEME (different harmful plants [2]; 320 g a.i./ha): 100% |
| CCON=C(C)c1c(Cl)ccc(C(=O)Nc2ncnn2C)c1Cl (single isomer, unassigned) [4-5] |  | 100 |  | 90 | Herbicidal efficacy against ALOMY (different harmful plants [1]; 80 g a.i./ha): 30%; Herbicidal efficacy against ECHCG (different harmful plants [2]; 320 g a.i./ha): 90%; Herbicidal efficacy against STEME (different harmful plants [2]; 320 g a.i./ha): 80% |
